Reference: PMC6881066, “Non-sedating benzodiazepines cause paralysis and tissue damage in the parasitic blood fluke Schistosoma mansoni” (PLoS Neglected Tropical Diseases, 2019)
Entries after “also recorded” stand apart in the source; their conditions may differ. Where two headings read alike, the source gives them in different places.

Tests used:
adult male S. mansoni [1] = assay: Adult schistosome mobility assay (inhibition of movement); assay type: cell-based, Schistosoma mansoni; conditions: for IC50: Schistosoma mansoni, adult male worms cultured in compound overnight, movement relative to DMSO control; for Potency at evoking coiled, contractile paralysis / activity against parasites (in words): in vitro, concentration-response, Fig 2B & 2C
[2] = biological target: mammalian GABAARs (central benzodiazepine binding site); assay: [3H]flunitrazepam displacement binding assay, rat cerebral cortex membranes; conditions: rat brain membrane preparations, 0.4 nM radioligand, 60 min at 4°C
Description: Binding assays for benzodiazepines against mammalian GABAARs were performed measuring displacement of [3H] flunitrazepam (0.4 nM) from crude brain membrane preparations. Rat cerebral cortex membrane homogenate (80 μg protein) was incubated with 0.4 nM [3H]-flunitrazepam in 50 mM Tris-HCl (pH 7.7), plus test compounds (screened at concentrations ranging from 0.1 nM to 10 μM), and non-specific binding was assessed by incubation with diazepam (3 μM). Following incubation for 60 min at 4°C, samples were vacuum filtered through glass fiber filters (GF/B, Packard) presoaked with 0.3% PEI and rinsed with ice-cold 50 mM Tris-HCl (Unifilter, Packard). Filters were dried and counted for radioactivity in a scintillation counter (Topcount, Packard). Ki values of test compounds were calculated by the Cheng-Prusoff equation.

adult male S. mansoni [3] = assay: In vitro screen / re-screen for coiled, contractile (curl) phenotype; assay type: cell-based, Schistosoma mansoni; conditions: for Worms showing curl phenotype: overnight
S. mansoni tegument = assay: Transmission electron microscopy of drug-treated worms (tegument damage); assay type: cell-based, Schistosoma mansoni
Description: Adult worms were harvested and recovered as above. Fixation was carried out overnight at 4°C in 2.5% glutaraldehyde/2% paraformaldehyde in 0.1 M sodium cacodylate (pH 7.3). Worms were washed 3 × 10 minutes in 0.1 M sodium cacodylate and post-fixed for 2 hours on ice in reduced 1% osmium tetraoxide. Worms were then washed 2 × 10 minutes in distilled water and stained overnight at 4°C in alcoholic Uranyl Acetate. Worms were rinsed in distilled water, dehydrated in 50%, 75% and 95% MeOH, followed by successive 10 minute rinses in 100% MeOH and acetonitrile. Worms were incubated in a 1:1 mix of acetonitrile and epoxy resin for 1 hour prior to 2 × 1 hour incubations in epoxy resin. Worms were then cut transversely and embedded overnight in epoxy resin (60°C). Ultra-thin sections (70 nm) were cut onto bare 200-mesh copper grids and stained in aqueous lead citrate for 1 minute. Sections were imaged on a Hitachi H-600 electron microscope fitted with a Hamamatsu C4742-95 digital camera) operating at an accelerating voltage of 75 kV.
Given the parasite-selectivity of imidazobenzodiazepines (Fig 3, blue) relative to MCLZ-like compounds (Fig 3, red), we investigated the effects of XliHeII-048, Xhe-II-048 and SH-I-055 on schistosome tissues in more detail. Specifically, we were interested in drug-evoked damage to the parasite tegument, which is a feature of many anti-schistosomal compounds [38]. Worms treated with DMSO vehicle control, MCLZ (5 μM) or various imidazobenzodiazepines (10 μM, based on effective concentrations determined in Fig 2) overnight were fixed and processed for imaging by transmission electron microcopy (TEM).
(§1) Fig 4 Xhe-II-048 damages the schistosome tegument. (A) Transmission electron microscopy images of transverse sections of S. mansoni exposed to either DMSO control, MCLZ (5 μM) or various imidazobenzodiazepines (10 μM, 14 hours). Dorsal tegument is oriented to the top. Scale = 2 μm. Arrowed = vacuoles beneath the tegument apical membrane. (B) Movement of worms treated with DMSO, MCLZ, or TMS-acetylene imidazobenzodiazepine compounds (10 μM, 14 hours), and recovery at various timepoints (3 hours, 1 day) following drug washout.

S. mansoni = assay: Recovery of worm movement following drug washout; assay type: cell-based, Schistosoma mansoni; conditions: 14 hours treatment, recovery 3 hours, 1 day after washout
Description: Female Swiss Webster mice infected with S. mansoni cercariae (NMRI strain) were sacrificed 49 days post infection by CO2 euthanasia. Adult schistosomes were recovered by dissection of the mesenteric vasculature. Harvested schistosomes were washed in DMEM (ThermoFisher cat. # 11995123) supplemented with HEPES (25mM), 5% v/v heat inactivated FCS (Sigma Aldrich cat. # 12133C) and Penicillin-Streptomycin (100 units/mL). Worms were cultured in 6 well dishes (4–5 male worms in 3mL media per well) in the presence of various test compounds or DMSO vehicle control overnight (37°C / 5% CO2). Worms were imaged the next day to record movement phenotypes using a Zeiss Discovery v20 stereomicroscope and a QiCAM 12-bit cooled color CCD camera controlled by Metamorph imaging software (version 7.8.1.0). 1 minute recordings were acquired at 4 frames per second and saved as a .TIFF stack, which was imported into ImageJ for analysis. An outline of the workflow used to quantify movement from these video recordings is shown in S1 Fig. Maximum intensity projections were generated for the entire stack of images (241 frames for a 1-minute recording) and integrated pixel values were measured for the resulting composite image, allowing normalization of movement relative to DMSO control treated worms. Inhibition of movement IC50 values were calculated using GraphPad Prism v8.1.1 and are expressed ± 95% confidence intervals. Data represents mean ± standard error for ≥3 independent experiments. Significance (*) was determined by unpaired t-test at a threshold of 0.05.
as §1

schistosomes = test system: schistosomes; parameters: method as in PMID 380021; conditions: human clinical trials; cited from earlier work
SmGluCl = test system: SmGluCl; parameters: method as in PMID 24009509; conditions: cited from earlier work
S. japonicum = conditions: no reference given; cited from earlier work
[4] = cited from earlier work
[5] = human clinical trials; cited from earlier work
schistosomiasis = test system: schistosomiasis; parameters: method as in PMID 21695161, PMID 28619227; conditions: PZQ treatment; cited from earlier work
[6] = inactive compounds tested at concentrations as high as 50 μM

## O=C1CN=C(c2ccccc2Cl)c2cc([N+](=O)[O-])ccc2N1 [CLZ, clonazepam, reference compound]
Adult male S. mansoni [1]; Fig 3
  Decrease in potency relative to MCLZ (loss of C3 methyl group): > 3 log
Adult male S. mansoni [1]; [6]
  IC50: 1900 nM
[2]
  Ki: 0.82 nM

## C[C@H]1N=C(c2ccccc2F)c2cc(C#C[Si](C)(C)C)ccc2NC1=O [GL-I-61]
Adult male S. mansoni [3]; 10 micromolar
  Worms showing curl phenotype: 3/8 curling at 10 micromolar

## O=C1CN=C(c2ccc(Cl)cc2)c2cc(Cl)ccc2N1 [GL-I-74]
Adult male S. mansoni [3]; 10 micromolar
  Worms showing curl phenotype: 1/8 curl at 10 micromolar

## CCOC(=O)c1ncn2c1[C@H](C)N=C(c1ccccc1F)c1cc(C3CC3)ccc1-2 [GL-I-78]
Adult male S. mansoni [1]
  Potency at evoking coiled, contractile paralysis / activity against parasites (in words): dramatically decreased affinity
Adult male S. mansoni [3]; 10 micromolar
  Worms showing curl phenotype: Inactive (0/8 curl) at 10 micromolar

## C[C@H]1N=C(c2ccccc2F)c2cc(Br)ccc2-n2cnc(-c3cnco3)c21 [GL-III-36]
Adult male S. mansoni [3]; 10 micromolar
  Worms showing curl phenotype: inactive (0/8 curling) at 10 micromolar

## C[C@H]1N=C(c2ccccc2F)c2cc(C#C[Si](C)(C)C)ccc2-n2cnc(-c3cnco3)c21 [GL-III-72]
Adult male S. mansoni [3]; 10 micromolar
  Worms showing curl phenotype: 5/8 curl at 10 micromolar

## Brc1ccc2c(c1)C(c1ccccc1)=NCc1c(-c3cnco3)ncn1-2 [KRM-II-73]
Adult male S. mansoni [3]; 10 micromolar
  Worms showing curl phenotype: 2/8 curl at 10 micromolar

## Cc1ncoc1-c1ncn2c1CN=C(c1ccccc1)c1cc(Br)ccc1-2 [KRM-III-66]
Adult male S. mansoni [3]; 10 micromolar
  Worms showing curl phenotype: 6/8 curl at 10 micromolar

## C#Cc1ccc2c(c1)C(c1ccccn1)=NCc1c(-c3ocnc3C)ncn1-2 [KRM-III-79]
Adult male S. mansoni [3]; 10 micromolar
  Worms showing curl phenotype: 5/8 curl at 10 micromolar

## C[C@@H]1N=C(c2ccccc2Cl)c2cc([N+](=O)[O-])ccc2NC1=O [MCLZ, meclonazepam]
Adult male S. mansoni [1]
  IC50: 160 nM
[2]
  Ki: 2.4 nM
S. mansoni tegument; 5 μM, overnight
  Tegument ultrastructure (TEM): pervasive vacuolization of the tegument
S. mansoni; MCLZ
  Recovery of movement following drug washout: do not recover movement
schistosomes
  Effective anti-parasitic dose: 0.2 to 0.3 mg/kg
SmGluCl
  Activity against SmGluCl: inactive
S. japonicum
  Activity against S. japonicum: inactive
[4]; MCLZ
  Bioavailability: orally bioavailable
  Half-life: up to 80 hours
[5]
  Dose at which sedation was reported: above 0.3 mg/kg

## C[C@@H]1N=C(c2ccccc2)c2cc([N+](=O)[O-])ccc2NC1=O [MYM-I-88]
Adult male S. mansoni [1]; [6]
  IC50: 26000 nM
[2]
  Ki: 76.4 nM

## C[C@@H]1N=C(c2ccccc2F)c2cc([N+](=O)[O-])ccc2NC1=O [MYM-I-91A]
Adult male S. mansoni [1]; [6]
  IC50: 7200 nM
[2]
  Ki: 12.1 nM

## C[C@@H]1N=C(c2ccccc2Cl)c2cc([N+](=O)[O-])ccc2N(C)C1=O [MYM-II-53]
Adult male S. mansoni [1]; [6]
  IC50: > 50000 nM
[2]
  Ki: 4.1 nM

## O=C(C1CCCCC1)N1CC(=O)N2CCc3ccccc3C2C1 (centres unmarked) [PZQ, praziquantel]
schistosomiasis
  Cure rates: 70–90%

## C#Cc1ccc2c(c1)C(c1ccccc1F)=N[C@@H](C)c1c(C(=O)OCC)ncn1-2 [SH-053-2’F-S-CH3]
Adult male S. mansoni [1]
  Potency at evoking coiled, contractile paralysis / activity against parasites (in words): dramatically decreased affinity

## CCOC(=O)c1ncn2c1[C@H](C)N=C(c1ccccc1F)c1cc(Br)ccc1-2 [SH-I-48B]
Adult male S. mansoni [1]
  Potency at evoking coiled, contractile paralysis / activity against parasites (in words): dramatically decreased affinity
Adult male S. mansoni [3]; up to 100 micromolar
  Activity (curl phenotype): Inactive up to 100 micromolar

## CCOC(=O)c1ncn2c1[C@H](C)N=C(c1ccccc1F)c1cc(C#C[Si](C)(C)C)ccc1-2 [SH-I-055]
Adult male S. mansoni [1]; [6]
  IC50: 1400 nM
Adult male S. mansoni [1]; movement IC50 comparison
  Times less potent than XliHeII-048: ~ 3 times
[2]
  Ki: 1700 nM
S. mansoni tegument; 10 μM, overnight (14 hours)
  Tegument ultrastructure (TEM): normal tissue ultrastructure
S. mansoni; 10 μM
  Recovery of movement following drug washout: recovering by 1 day after drug washout
Adult male S. mansoni [3]; 5 micromolar
  Worms showing curl phenotype: 4/8
Adult male S. mansoni [3]; 10 micromolar
  Worms showing curl phenotype: 8/8

## CCOC(=O)c1ncn2c1[C@@H](C)N=C(c1ccccc1F)c1cc(C#C[Si](C)(C)C)ccc1-2 [SH-I-060]
Adult male S. mansoni [1]
  Potency at evoking coiled, contractile paralysis / activity against parasites (in words): marked decrease in potency; also recorded: essentially inactive

## CCOC(=O)c1ncn2c1CN=C(c1ccccc1)c1cc(C#C[Si](C)(C)C)ccc1-2 [Xhe-II-048]
Adult male S. mansoni [1]
  IC50: 850 nM
[2]
  Ki: 2500 nM
S. mansoni tegument; 10 μM, overnight (14 hours)
  Tegument ultrastructure (TEM): extensive vacuole distribution beneath the apical membrane
S. mansoni; 10 μM
  Recovery of movement following drug washout: did not recover movement up to one day

## CCOC(=O)c1ncn2c1CN=C(c1ccccc1F)c1cc(C#C[Si](C)(C)C)ccc1-2 [XliHeII-048]
Adult male S. mansoni [1]
  IC50: 540 nM
[2]
  Ki: 1600 nM
S. mansoni tegument; 10 μM, overnight (14 hours)
  Tegument ultrastructure (TEM): normal tissue ultrastructure
S. mansoni; 10 μM
  Recovery of movement following drug washout: recovering by 1 day after drug washout
Adult male S. mansoni [3]; 10 micromolar
  Worms showing curl phenotype: 5/5

## CCOC(=O)c1ncn2c1CN(C)C(=O)c1cc(F)ccc1-2 [flumazenil]
[4]; flumazenil, administered by IV
  Elimination half-life: < 1 h
[4]; flumazenil
  Bioavailability: poor bioavailability

## O=C1CN=C(c2ccccc2)c2cc([N+](=O)[O-])ccc2N1 [nitrazepam, reference compound]
Adult male S. mansoni [1]; [6]
  IC50: > 50000 nM
Adult male S. mansoni [1]
  Potency at evoking coiled, contractile paralysis / activity against parasites (in words): inactive against parasites
